“Also recorded” adds a separate entry of the source. Read-outs that look alike come from different tables or passages of the source.
How the values were obtained:
[1] = population PK analysis; cited from earlier work
[2] = 80 mg/m^2 dose level, daily x5, cited from earlier work; for Cmax: read-out: plasma Cmax
[3] = cellular assays; cited from earlier work
[4] = patients treated at 56 mg/m^2; cited from earlier work
[5] = tested on: SKBr3 breast cancer cells; conditions: cited from earlier work
leukemia cells = conditions: cited from earlier work
[6] = Dose limiting toxicity and adverse events in trial of 17-AAG with trastuzumab; conditions: 450 mg/m^2/single administration of 17-AAG once weekly for four weeks
Experimental: The invention was tested in an open-label, dose escalating clinical trial. […] Metastatic disease, if present, was not progressing so as to required palliative treatment. […] Patients were assessed in 4-week cycles.
Dosing. […] If two or more of six evaluable patients entered in a cohort experienced a DLT then the MTD was exceeded; if the previous dose level produced DLT in no more than 1 out of 6 patients, then this dose was considered the MTD and was used for all subsequent patients entered in the phase 2 portion of the study.

advanced solid tumors = conditions: cited from earlier work
[7] = tested on: colon adenocarcinoma cells; conditions: cited from earlier work
metastatic melanoma = conditions: cited from earlier work
clinical = conditions: human, in vivo; for AUC / AUC(0-t) / Tmax / Cmax: iv; for Cmax: first dose
Experimental: Patients were assessed in 4-week cycles.
PK assessment. PK sampling was obtained during the first treatment cycle only. […] Plasma concentrations were determined by a validated liquid chromatography-mass spectrometry (LC-MS) method.
For patients with a body surface area greater than 2.4 m^2, dosing was calculated using a maximum BSA of 2.4 m^2.
Plasma samples from some of the patients were assayed using a validated good laboratory practice (GLP) compliant analytical method.
All of the patients' plasma samples were analyzed.

MEXF 276L melanoma cells = conditions: cited from earlier work
solid tumors = conditions: cited from earlier work
[8] = tested on: solid tumors and lymphomas; conditions: 3 weeks out of a 4 week cycle, cited from earlier work
[9] = tested on: lung cancer cells with wild-type Rb; conditions: cited from earlier work
[10] = cited from earlier work
breast cancer cells = conditions: cited from earlier work
NSCLC cells = conditions: cited from earlier work
[11] = free base form; cited from earlier work
[12] = All cohorts combined (225-450 mg/m^2), mean
[13] = Cohort 1, 17-AAG 225 mg/m^2 IV over 120 min with trastuzumab, first dose, mean
[14] = Cohort 2, 17-AAG 300 mg/m^2 IV over 120 min with trastuzumab, first dose, mean
[15] = Cohort 3, 17-AAG 375 mg/m^2 IV over 120 min with trastuzumab, first dose, mean
[16] = Cohort 4, 17-AAG 450 mg/m^2 IV over 120 min with trastuzumab, first dose, mean
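Wherever AUC is given: Open-label dose-escalation clinical trial, plasma drug levels measured by validated LC-MS, sampling during the first 4-week treatment cycle only.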
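Wherever MRT is given: Open-label dose-escalation clinical trial, plasma drug levels measured by validated LC-MS, sampling during the first 4-week treatment cycle only.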
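Wherever Tmax is given: Open-label dose-escalation clinical trial, plasma drug levels measured by validated LC-MS, sampling during the first 4-week treatment cycle only.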
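Wherever Vd is given: Open-label dose-escalation clinical trial, plasma drug levels measured by validated LC-MS, sampling during the first 4-week treatment cycle only.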

CO[C@H]1/C=C\C=C(/C)C(=O)NC2=CC(=O)C(N)=C(C[C@@H](C)C[C@H](OC)[C@H](O)[C@@H](C)/C=C(\C)[C@@H]1OC(N)=O)C2=O [17-AG, 17-amino-17-demethoxygeldanamycin]
Clearance [1]: 21.3 L/h | t1/2 [2]: 1.75 h | Cmax [2]: 607 nM | activity relative to 17-AAG [3]: equipotent; also recorded: activity approximately equal to that of 17-AAG | Clearance [4]: 30.8 L/h/m^2 | Vz [4]: 203 L/m^2 | average AUC [4]: 5,558 nM*h | average t1/2 [4]: 8.6 h

C=CCNC1=C2C[C@@H](C)C[C@H](OC)[C@H](O)[C@@H](C)/C=C(\C)[C@H](OC(N)=O)[C@@H](OC)/C=C\C=C(/C)C(=O)NC(=CC1=O)C2=O [17-AAG, 17-allylamino-17-demethoxygeldanamycin]
effect of exposure on client proteins [5]: depletion of erbB2 and destabilization of Raf-1 and mutant p53 | effect of exposure on client proteins (leukemia cells): down-regulation of intracellular Bcr-Abl and c-Raf proteins and reduction of Akt kinase activity | DLT [6]: without reaching DLT in any treated patient | dose at which nausea and vomiting secondary to pancreatitis and grade 3 fatigue were observed (advanced solid tumors; weekly for 3 out of every 4 weeks): 395 mg/m^2 | objective tumor responses (advanced solid tumors; weekly or twice weekly schedules): No objective tumor responses have been observed in this trial to date | effect of exposure on client proteins [7]: depletion of Raf-1, c-Akt, and Erk1/2 | complete or partial responses (metastatic melanoma; once weekly): No complete or partial responses were recorded | dose at which dose limiting toxicity was observed (metastatic melanoma; once weekly, elevation of AST): 450 mg/m^2/week | stable disease (metastatic melanoma; patients treated at 320-450 mg/m^2): two showed radiologically documented long term stable disease | Clearance (clinical; [12]): 536 mL/min | Clearance (clinical; All cohorts combined, Median): 497 mL/min | MRT (clinical; [12]): 4.71 h | MRT (clinical; All cohorts combined, Median): 4.26 h | Vd (clinical; Vss, All cohorts combined (225-450 mg/m^2), mean): 147 ± 94.8 L | Vd (clinical; Vss, All cohorts combined, Median): 128 L | Vd (clinical; Vz, All cohorts combined (225-450 mg/m^2), mean): 187 ± 156 L | Vd (clinical; Vz, All cohorts combined, Median): 146 L | AUC (clinical; 225 mg/m2): 588 ng·h/mL | AUC(0-t) (clinical; 225 mg/m2): 7950 ng·h/mL | Tmax (clinical; 225 mg/m2): 1.8 h | Cmax (clinical; 225 mg/m2, Cmax, Cohort 1, 17-AAG 225 mg/m^2 IV over 120 min with trastuzumab, mean): 3260 ng/mL | AUC (clinical; 300 mg/m2): 281 ng·h/mL | AUC(0-t) (clinical; 300 mg/m2): 15900 ng·h/mL | Tmax (clinical; 300 mg/m2): 1.9 h | Cmax (clinical; 300 mg/m2, Cmax, Cohort 2, 17-AAG 300 mg/m^2 IV over 120 min with trastuzumab, mean): 4050 ng/mL | AUC (clinical; 375 mg/m2): 490 ng·h/mL | AUC(0-t) (clinical; 375 mg/m2): 27500 ng·h/mL | Tmax (clinical; 375 mg/m2): 1.9 h | Cmax (clinical; 375 mg/m2, Cmax, Cohort 3, 17-AAG 375 mg/m^2 IV over 120 min with trastuzumab, mean): 9400 ng/mL | AUC (clinical; 450 mg/m2): 558 ng·h/mL | AUC(0-t) (clinical; 450 mg/m2): 27900 ng·h/mL | Tmax (clinical; 450 mg/m2): 2 h | Cmax (clinical; 450 mg/m2, Cmax, Cohort 4, 17-AAG 450 mg/m^2 IV over 120 min with trastuzumab, mean): 8110 ng/mL | half-life (clinical; t1/2, All cohorts combined (225-450 mg/m^2), mean): 4.13 ± 2.48 h | half-life (clinical; t1/2, All cohorts combined, Median): 3.42 h | effect of exposure on client proteins (MEXF 276L melanoma cells): depletion of Hsp90 and down-regulation of Raf-1 and erbB2 | dose limiting toxicity (solid tumors; daily for 5 days every 3 weeks): dose limiting reversible hepatotoxicity | maximum tolerated dose (MTD) and recommended Phase 2 dose (solid tumors; daily for 5 days every 3 weeks): 40 mg/m^2 | objective tumor responses (solid tumors; doses up to 110 mg/m^2 daily for 5 days every 3 weeks): No objective tumor responses were observed | Cmax [2]: 2700 nM | MTD ([8]; weekly 17-AAG): 308 mg/m^2 | objective tumor responses ([8]; weekly): No objective tumor responses have been observed to date in this trial | effect of exposure on client proteins [9]: degradation of cdk4, cdk6, and cyclin E | relation between dose and area under the curve (AUC) ([10]; dose levels studied): linear correlation | mean volume of distribution ([10]; highest dose level 450 mg/m^2): 142.6 L | effect of exposure on client proteins (breast cancer cells): depletion of steroid receptors | MRT (All cohorts combined, Max): 11.44 h | Vss (All cohorts combined, Max): 308.74 L/m^2 | t1/2 (All cohorts combined, Max): 11.42 h | MRT (All cohorts combined, Min): 2.44 h | t1/2 (All cohorts combined, Min): 1.33 h | AUCext [13]: 7.1% | AUCtotal [13]: 8,539.3 ng/mL*h | AUMCtotal [13]: 29,168 ng/mL*(h^2) | Cmax [13]: 3,257.5 ng/mL | Lz [13]: 0.3804 h⁻¹ | AUCext [14]: 1.6% | AUCtotal [14]: 16,163 ng/mL*h | AUMCtotal [14]: 107,072 ng/mL*(h^2) | Lz [14]: 0.1637 h⁻¹ | AUCext [15]: 2.2% | AUCtotal [15]: 27,983 ng/mL*h | AUMCtotal [15]: 124,179 ng/mL*(h^2) | Lz [15]: 0.1996 h⁻¹ | AUCext [16]: 2.8% | AUCtotal [16]: 28,425 ng/mL*h | AUMCtotal [16]: 65,954 ng/mL*(h^2) | Lz [16]: 0.2037 h⁻¹ | Clearance [4]: 19.9 L/h/m^2 | Vz [4]: 93 L/m^2 | average AUC [4]: 6,708 nM*h | effect of exposure on client proteins (NSCLC cells): depletion of erbB1 and erbB2 levels

C=CCNc1c(O)cc2c(O)c1C[C@@H](C)C[C@H](OC)[C@H](O)[C@@H](C)/C=C(\C)[C@H](OC(N)=O)[C@@H](OC)/C=C\C=C(/C)C(=O)N2 [17-AAGH2, 17-allylamino-18,21-dihydro-17-demethoxygeldanamycin]
stability to air oxidation [11]: air oxidizes readily

Reference: patent US20090197852A9 (priority 2001, published 2009)
